The record followed here is US6610791B2, “Photosensitive compound and photosensitive resin” (Toyo Gosai Kogyo Co., Ltd., priority 2000, dated 2003).

The nature of the data set: Measurement of solubility in water at 25° C. Type of data set: physicochemical. The procedure:
Measurement of [5-(sodium 4-azidobenzylidene-2-sulfonate)-3-(N-(4,4′-dimethoxybutyl)carbamoyl)methyl]-rhodanine in Terms of Solubility in Water and Molar Absorption Coefficient
Measurement of solubility in water at 25° C. was carried out for the compound obtained in Example 3 or 6, and for the compound, which was obtained through the method of Example 2 described in Japanese Patent Application Laid-Open (kokai) No. 10-310769, represented by the following formula. [drawing 17]
Further, UV spectra were measured for the two compounds in water serving as a solvent so as to measure the molar absorption coefficient ε at a wavelength of maximum absorption.

Take “[5-(sodium 4-azidobenzylidene-2-sulfonate)-3-(N-(4,4′-dimethoxybutyl)carbamoyl)methyl]rhodanine”: where the note is “in 100 g of water”, the solubility in water was 5.4 g. For the same substance, for the setting “water, ratio of the invention compound to the reference compound”, the “solubility of the former compound relative to the latter (reference) compound” value was “approximately five”.
